Experiments:
Test in all cases: Enzyme inhibiting activity of MMPs, fluorogenic peptide substrate
Assay type in all cases: biochemical
MMP-9 = target: T1, MMP-9 (Homo sapiens, UniProt P14780); details: substrate MOCAc-Pro-Leu-Gly-Leu-A2Pr(DNP)-Ala-Arg-NH2, fluorescent intensity
T1 construct: purchased Calbiochem (EMD/MERCK Biosciences)
Procedure: (§1) Various human MMPs (MMP-2, MMP-9 and MMP-13) were purchased from Calbiochem (EMD/MERCK Biosciences).
(§2) The enzyme activity of MMPs was measured according to the method described in C. Graham Knight, Frances Willenbrock and Gillian Murphy: A novel coumarin-labelled peptide for sensitive continuous assays of the matrix metalloproteinases: FEBS LETT., 296, (1992), 263-266. As a substrate, MOCAc-Pro-Leu-Gly-Leu-A2Pr(DNP)- Ala-Arg-NH2 (Peptide Institute, Inc. Osaka, Japan) was used, and the following four assays are performed per compound (inhibitor) for measuring the inhibiting activity.
(§3) (A) Substrate (synthetic substrate), enzyme (MMPs), inhibitor
(§4) (B) Substrate (synthetic substrate), inhibitor
(§5) (C) Substrate (synthetic substrate), enzyme (MMPs)
(§6) (D) Substrate (synthetic substrate)
(§7) In each assay, the fluorescent intensity was measured, and inhibition (%) was calculated by the following equation.
(§8) Inhibition (%)=[I−(A−B)/(C−D)]×100
(§9) IC50 indicates a concentration at which inhibition (%) is 50%.

MMP-2 = target: T2, MMP-2 (Homo sapiens, UniProt P08253); details: substrate MOCAc-Pro-Leu-Gly-Leu-A2Pr(DNP)-Ala-Arg-NH2, fluorescent intensity
T2 construct: purchased Calbiochem (EMD/MERCK Biosciences)
T2 sequence (P08253 110-660): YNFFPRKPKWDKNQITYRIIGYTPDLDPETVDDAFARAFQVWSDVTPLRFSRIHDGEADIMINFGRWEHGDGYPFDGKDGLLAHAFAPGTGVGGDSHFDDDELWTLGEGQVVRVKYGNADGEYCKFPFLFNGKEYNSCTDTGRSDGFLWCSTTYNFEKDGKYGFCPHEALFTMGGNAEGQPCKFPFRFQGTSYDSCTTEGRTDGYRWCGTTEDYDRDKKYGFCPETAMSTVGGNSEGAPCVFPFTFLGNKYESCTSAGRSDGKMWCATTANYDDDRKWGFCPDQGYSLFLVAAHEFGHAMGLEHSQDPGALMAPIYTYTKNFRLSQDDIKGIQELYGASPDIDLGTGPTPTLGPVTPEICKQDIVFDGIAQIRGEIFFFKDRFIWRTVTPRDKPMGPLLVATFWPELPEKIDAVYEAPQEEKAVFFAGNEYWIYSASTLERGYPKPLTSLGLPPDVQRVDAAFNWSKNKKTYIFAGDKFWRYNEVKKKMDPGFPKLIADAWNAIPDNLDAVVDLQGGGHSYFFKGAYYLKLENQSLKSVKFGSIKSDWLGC
Procedure: as §1, §2, §3, §4, §5, §6, §7, §8, §9

MMP-13 = target: T3, MMP-13 (Homo sapiens, UniProt P45452); details: APMA-activated proenzyme; substrate MOCAc-Pro-Leu-Gly-Leu-A2Pr(DNP)-Ala-Arg-NH2, fluorescent intensity; read-out: IC50 MMP-13
T3 construct: purchased Calbiochem (EMD/MERCK Biosciences)
In short: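 Pro-MMP-13 was activated with 1 mM APMA at 37° C for 2 h in 50 mM Tris-HCl pH 7.6, 0.3 M NaCl, 10 mM CaCl2, 0.005% Brij35. Activity was read by fluorescence using MOCAc-Pro-Leu-Gly-Leu-A2Pr(DNP)-Ala-Arg-NH2 substrate, with enzyme and inhibitor blank corrections. IC50 is the concentration giving 50% inhibition.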

T1 sequence (P14780 94-707): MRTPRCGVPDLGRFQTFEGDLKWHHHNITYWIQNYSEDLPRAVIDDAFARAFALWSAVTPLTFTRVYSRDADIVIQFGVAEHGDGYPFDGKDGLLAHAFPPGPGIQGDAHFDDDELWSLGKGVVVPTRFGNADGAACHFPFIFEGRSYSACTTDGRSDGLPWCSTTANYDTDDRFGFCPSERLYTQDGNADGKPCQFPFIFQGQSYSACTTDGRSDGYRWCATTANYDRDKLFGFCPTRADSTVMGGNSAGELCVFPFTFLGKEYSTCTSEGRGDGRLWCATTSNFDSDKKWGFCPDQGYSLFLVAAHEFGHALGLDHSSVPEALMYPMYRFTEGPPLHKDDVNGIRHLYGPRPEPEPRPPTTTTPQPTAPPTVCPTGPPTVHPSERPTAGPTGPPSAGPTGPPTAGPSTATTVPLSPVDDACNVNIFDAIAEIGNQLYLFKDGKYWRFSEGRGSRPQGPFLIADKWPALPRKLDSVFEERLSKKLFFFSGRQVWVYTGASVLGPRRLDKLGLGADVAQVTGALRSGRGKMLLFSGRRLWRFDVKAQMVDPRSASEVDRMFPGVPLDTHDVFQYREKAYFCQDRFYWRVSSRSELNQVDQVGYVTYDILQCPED

| Compound | IC50 (MMP-9) [nM] | IC50 (MMP-2) [nM] | IC50 (MMP-13) [nM] |
| --- | --- | --- | --- |
| CC(C)[C@@H](NS(=O)(=O)N1CCN(c2ccc(C#Cc3nc(-c4cccc(OCc5ccc(C(N)=O)cc5)c4)cs3)cc2)CC1)C(=O)O [Compound V-78, (R)-2-[4-(4-{4-[3-(4-carbamoylbenzyloxy)-phenyl]-thiazol-2-ylethynyl}-phenyl)-piperazine-1-sulfonylamino]-3-methylbutanoic acid] | > 10000 | > 10000 | 4 |
| CC(C)OCCOc1ccc(C#Cc2ccc(N3CCN(S(=O)(=O)N[C@@H](C(=O)O)C(C)C)CC3)cc2)cc1C(=O)NCC#N [III-137, (R)-2-(4-{4-[3-(cyanomethylcarbamoyl)-4-(2-isopropoxyethoxy)-phenylethynyl]-phenyl}-piperazine-1-sulfonylamino)-3-methylbutanoic acid] | > 10000 | 1000 to 10000 | 17 |
| CC(C)[C@@H](NS(=O)(=O)N1CCN(c2ccc(C#Cc3ccnc(C(=O)NCc4ccc(Cl)cc4)c3)cc2)CC1)C(=O)O [III-144, (R)-2-(4-{4-[2-(4-chrolobenzylcarbamoyl)-pyridin-4-ylethynyl]-phenyl}-piperazine-1-sulfonylamino)-3-methylbutanoic acid] | > 10000 | 1000 to 10000 | 10 |
| CCC[C@H](NS(=O)(=O)N1CCN(c2ccc(C#Cc3ccnc(C(=O)NCc4ccc(OC)cc4)c3)cc2)CC1)C(=O)O [Compound V-33, (5)-2-(4-{4-[2-(4-methoxybenzylcarbamoyl)-pyridin-4-ylethynyl]-phenyl}-piperazine-1-sulfonylamino)-pentanoic acid] | > 10000 | 1000 to 10000 | 3 |
| CCC(=O)c1cccc2ccc(C#Cc3ccc(N4CCN(S(=O)(=O)N[C@H](C)C(=O)O)CC4)cc3)cc12 [III-86, (R)-2-{4-[4-(8-propionylnaphthalen-2-ylethynyl)-phenyl]-piperazine-1-sulfonylamino}-proponic acid] | > 10000 | 1000 to 10000 | 9 |
| CCC(=O)c1cccc2ccc(C#Cc3ccc(N4CCN(S(=O)(=O)N[C@@H](C(=O)O)C(C)C)CC4)cc3)cc12 [III-87, (R)-2-{4-[4-(8-propionylnaphthalen-2-ylethynyl)-phenyl]-piperazine-1-sulfonylamino}-3-methylbutanoic acid] | > 10000 | > 10000 | 25 |
| CC(C)[C@@H](NS(=O)(=O)N1CCN(c2ccc(C#Cc3ccnc(C(=O)NCc4ccc(F)cc4)c3)cc2)CC1)C(=O)O [III-152, (R)-2-(4-{4-[2-(4-fluorobenzylcarbamoyl)-pyridin-4-ylethynyl]-phenyl}-piperazine-1-sulfonylamino)-3-methylbutanoic acid] | > 10000 | 1000 to 10000 | 8 |
| CCc1cnc(-c2cc(C#Cc3ccc(N4CCN(S(=O)(=O)N[C@@H](C(=O)O)C(C)C)CC4)cc3)ccc2OCCOC)o1 [Compound V-57, (R)-2-(4-{4-[3-(5-ethyloxazol-2-yl)-4-(2-methoxyethoxy)-phenylethynyl]-phenyl}-piperazine-1-sulfonylamino)-3-methylbutanoic acid] | > 10000 | 1000 to 10000 | 13 |
| Cc1ccc(CNC(=O)c2cc(C#Cc3ccc(N4CCN(S(=O)(=O)N[C@@H](C(=O)O)C(C)C)CC4)cc3)ccn2)cc1 [III-193, (R)-3-methyl-2-(4-{4-[2-(4-methylbenzylcarbamoyl)-pyridin-4-ylethynyl]-phenyl}-piperazine-1-sulfonylamino)-butanoic acid] | > 10000 | 1000 to 10000 | 5 |
| CC(C)[C@@H](NS(=O)(=O)N1CCN(c2ccc(C#Cc3ccc4ccn(Cc5ccncc5)c(=O)c4c3)cc2)CC1)C(=O)O [III-169, (R)-3-methyl-2-{4-[4-(1-oxo-2-pyridin-4-ylmethyl-1,2-dihydroisoquinolin-7-ylethynyl)-phenyl]-piperazine-1-sulfonylamino}-butanoic acid] | > 10000 | 1000 to 10000 | 3 |
| CC(C)[C@@H](NS(=O)(=O)N1CCN(c2ccc(C#Cc3ccnc(C(=O)NCc4ccc(N5CCCC5=O)cc4)c3)cc2)CC1)C(=O)O [III-37, (R)-3-methyl-2-[4-(4-{2-[4-(2-oxopyrrolidine-1-yl)-benzylcarbamoyl]-pyridin-4-ylethynyl}-phenyl)-piperazine-1-sulfonylamino]-butanoic acid] | > 10000 | 100 to 1000 | 1 |
| CNC(=O)Cc1cnc(-c2cc(C#Cc3ccc(N4CCN(S(=O)(=O)N[C@@H](C(=O)O)C(C)C)CC4)cc3)ccc2OCCOC)o1 [Compound V-28, (R)-2-(4-{4-[4-(2-methoxyethoxy)-3-(5-methylcarbamoylmethyloxazol-2-yl)-phenylethynyl]-phenyl}-piperazine-1-sulfonylamino)-3-methylbutanoic acid] | > 10000 | 1000 to 10000 | 16 |
| CC(C)c1ccc(CNC(=O)c2cc(C#Cc3ccc(N4CCN(S(=O)(=O)N[C@@H](C(=O)O)C(C)C)CC4)cc3)ccn2)cc1 [III-195, (R)-2-(4-{4-[2-(4-isopropylbenzylcarbamoyl)-pyridin-4-ylethynyl]-phenyl}-piperazine-1-sulfonylamino)-3-methylbutanoic acid] | > 10000 | > 10000 | 7 |
| (R)-2-{4-[4(1-methyloxazol-5-yl-1H-indol-5-ylethynyl)-phenyl]-piperazine-1-sulfonylamino}-proponic acid [Compound V-47] | > 10000 | 1000 to 10000 | 4 |
| CC(C)[C@@H](NS(=O)(=O)N1CCN(c2ccc(C#Cc3ccnc(C(=O)NCc4ccc5c(c4)CCO5)c3)cc2)CC1)C(=O)O [III-200, (R)-2-[4-(4-{2-[(2,3-dihydrobenzofuran-5-ylmethyl)-carbamoyl]-pyridin-4-ylethynyl}-phenyl)-piperazine-1-sulfonylamino]-3-methylbutanoic acid] | > 10000 | 1000 to 10000 | 5 |
| C[C@@H](NS(=O)(=O)N1CCN(c2ccc(C#Cc3ccc4ccn(Cc5ccccc5)c(=O)c4c3)cc2)CC1)C(=O)O [III-5, (R)-2-{4-[4-(2-benzyl-1-oxo-1,2-dihydroisoquinolin-7-ylethynyl)-phenyl]-piperazine-1-sulfonylamino}-proponic acid] | > 10000 | 1000 to 10000 | 5 |
| C[C@@H](NS(=O)(=O)N1CCN(c2ccc(C#Cc3ccnc(C(=O)NCc4ccc(Cl)cc4)c3)cc2)CC1)C(=O)O [III-1, (R)-2-(4-{4-[2-(4-chrolobenzylcarbamoyl)-pyridin-4-ylethynyl]-phenyl}-piperazine-1-sulfonylamino)-proponic acid] | > 10000 | 1000 to 10000 | 3 |
| CC(C)[C@@H](NS(=O)(=O)N1CCN(c2ccc(C#Cc3ccnc(C(=O)NCc4cccc(C#N)c4)c3)cc2)CC1)C(=O)O [Compound V-32, (R)-2-(4-{4-[2-(3-cyanobenzylcarbamoyl)-pyridin-4-ylethynyl]-phenyl}-piperazine-1-sulfonylamino)-3-methylbutanoic acid] | > 10000 | 1000 to 10000 | 16 |
| Cc1ccc(CNC(=O)c2cc(C#Cc3ccc(N4CCN(S(=O)(=O)N[C@@H](C(=O)O)C(C)C)CC4)cc3)ccn2)cc1F [III-230, (R)-2-(4-{4-[2-(3-fluoro-4-methylbenzylcarbamoyl)-pyridin-4-ylethynyl]-phenyl}-piperazine-1-sulfonylamino)-3-methylbutanoic acid] | > 10000 | 1000 to 10000 | 7 |
| CC(C)[C@@H](NS(=O)(=O)N1CCN(c2ccc(C#Cc3ccnc(C(=O)NCc4ccc(Br)cc4)c3)cc2)CC1)C(=O)O [III-216, (R)-2-(4-{4-[2-(4-bromobenzylcarbamoyl)-pyridin-4-ylethynyl]-phenyl}-piperazine-1-sulfonylamino)-3-methylbutanoic acid] | > 10000 | > 10000 | 17 |

From patent US20100099676A1 (SHIONOGI & CO., LTD., priority 2006, published 2010)
